Where two headings read alike, the source gives them in different places.
Tests used:
[1] = INS HCl solubility and stability in isotonic buffers of different pH (5 mg/ml in buffer, diluted to 1 mg/ml, LC-MS); type: physicochemical
Description: Analytical HPLC-MS was performed using an Agilent 1260 series Liquid Chromatograph/Mass Selective Detector (MSD, Single Quadrupole) equipped with an electrospray interface and a UV diode array detector. Analyses were performed on an ACE C8, 50×3.0 mm, 3 μm column, with an isocratic 0.1% formic acid/ACN (19%) eluent, at a rate of 1 ml/min over a period of 5 minutes. UV absorption was measured at 220 nm and 215-395 nm. MS analysis was performed with ESI (electron spray ionization) with a positive ionization method. PBS isotonic buffer was prepared from 1 tablet of Sigma Phosphate buffer saline P4417, in 200 ml of deionized water (according to product reconstitution instructions). Acetate isotonic buffers were prepared from sodium acetate/acetic acid in water in 150 mM concentration. NaOH 50% solution was used to adjust the pH. NaOAc solution was prepared by dissolving 1.23 gr in 100 ml water. Acetic acid solution was prepared by adding 945 μl of acetic acid to 100 ml water. […] The samples were further diluted to 1 mg/ml before analyzing by HPLC. The samples were prepared by dilution of 80 μl of reaction solution with 320 μl of MeOH. Each sample was filtered through PTFE 0.45 um filter vial. The samples were run in LC-MS and data used for calculation concentration in buffer. All injections for stability assay were performed using 20 μl due to low peak intensity with 2 μl. Final concentration was calculated accordingly.

CD4 T-cell = assay: Phase I/IIa clinical trial: CD4 T-cell count; type: in vivo, human; details: patients treated with INS (part II with lopinavir plus ritonavir)
Description: Reduced viral protein p24 antigen. • 3. Functional Assessment of HIV Infection (FAHI) questionnaire.
In addition, the preliminary results indicated treatment efficacy as measured by decrease in viral load in HIV patients. Most patients achieved significant reduction in viral load for up to 90% from baseline during the first 5 weeks of SC administration, meeting its exploratory endpoint. […] In this study, patients were treated for 5 weeks with a combined treatment of the subcutaneous composition as previous (0.2-0.4 mg/kg twice a week) and commercially available lopinavir 800 mg plus ritonavir 200 mg daily. The control group received only lopinavir 800 mg plus ritonavir 200 mg for additional 5 weeks.

HIV-1 = system: HIV-1
Description: This is a phase I/IIa pilot—Proof of Concept, dose escalation study.
Three cohorts of 3-6 patients (per cohort) received twice a week the Multiple Ascending Doses (MAD*) for up to 8 weeks to evaluate safety, clinical dose and preliminary efficacy for a duration of up to 6 weeks. Interim analysis was performed to decide on the safety of the low dose and continue to a higher dose SC administration. Study Duration: 1 year including screening, treatment and post treatment follow up
Cohort 1: Three to six (3-6) patients, each one received twice a week the decided MAD* for up to 8 weeks (up to 16 doses per patient). Subcutaneous dose: LOW; 0.05, mg/kg, with escalation to 0.2 mg/kg body weight at week 2-4. Cohort 2: Three to six (3-6) patients, each one received twice a week the decided MAD* for up to 8 weeks (up to 16 doses per patient). Subcutaneous dose: MEDIUM; 0.1 mg/kg, with escalation to 0.3 mg/kg body weight at week 2-4. Cohort 3: Three to six (3-6) patients, each one received twice a week the decided MAD* for up to 8 weeks (up to 16 doses per patient). Subcutaneous dose: HIGH; 0.2 mg/kg, with escalation to 0.4 mg/kg body weight at week 2-4. Interim analysis was performed to decide on the safety of all cohorts' doses and continue to a higher dose, up to 0.2 mg/kg for Cohort 1, up to 0.3 mg/kg for Cohort 2 and up to 0.4 mg/kg for Cohort 3, SC administration.
Effectiveness of Gammora assessed by reduced Viral load (by 0.5 LOG; Viral Suppression). • 1. Mean Change in CD4+ Cell Count as a Measure of Efficacy and Safety. • 2. Reduced viral protein p24 antigen. • 3. Functional Assessment of HIV Infection (FAHI) questionnaire.

[2] = system: 1975 human lung cancer cells; assay: Lung cancer tumor mice model; type: in vivo, athymic nude mice; details: for Inhibition of growth of lung cancer tumors relative to control: day 11
Description: Two models of cancer were generated: lung cancer and pancreatic cancer. About 5×10^6 of 1975 human lung cancer cells per 0.1 ml PBS per mouse were injected to male 7 weeks old athymic nude mice (n=30). The cells were injected, subcutaneously at one site on the back of the mice. About 5×10^6 PANC-1 human pancreatic cancer cells per 0.1 ml PBS per mouse were injected to male 7 weeks old athymic nude mice (n=22). The cells were injected, subcutaneously at one site on the back of the mice. When tumors were palpable (˜0.3-0.5 cm^3), the mice were randomly divided into three groups (Table 27) and the viruses and/or peptides were injected, twice a week for two weeks.
The first day of the study was defined as ‘Day 1’. The animals were administrated IP with either Vehicle (PBS or Formulation), lentiviral particles and SC with test items according to Table 27 on days 1, 4, 8 and 11. Body weight and tumor volume were checked on days 3, 7, 11, 14 and 17 (the latter was measured with a caliper). At the end of the experiment, on day 17, the mice were anesthetized and then sacrificed, and the tumors were removed, as well as lung, spleen, kidney and liver.

[3] = PBS buffer pH 7.4, at 5° C. and at 25° C., 0 hours
[4] = acetate buffer pH 4, 5° C., 0 hours
[5] = acetate buffer pH 4, 5° C., 24 hours
[6] = acetate buffer pH 4, 5° C., 168 hours
[7] = acetate buffer pH 4, 25° C., 0 hours
[8] = acetate buffer pH 4, 25° C., 24 hours
[9] = acetate buffer pH 4, 25° C., 168 hours
[10] = acetate buffer pH 6, 5° C., 0 hours
[11] = acetate buffer pH 6, 5° C., 24 hours
[12] = acetate buffer pH 6, 5° C., 168 hours
[13] = acetate buffer pH 6, 25° C., 0 hours
[14] = acetate buffer pH 6, 25° C., 24 hours
[15] = acetate buffer pH 6, 25° C., 168 hours
[16] = 5 weeks INS 0.2-0.4 mg/kg SC twice a week + lopinavir 800 mg plus ritonavir 200 mg daily

## WTAVQMAVFIHNFKRK [INS]
[1]; [3]
  Area: 201.90 mAU*S
  Assay %: 2.91%
  Concentration calculated from LC-MS data: 30 µg/mL
[1]; PBS buffer pH 7.4, at 5° C. and at 25° C., 24 hours
  Area: Not observed
[1]; PBS buffer pH 7.4, at 5° C. and at 25° C., 168 hours
  Area: Not observed
[1]; a white precipitate was observed
  Solubility in PBS buffer pH 7.4: no solubility at all
[1]; [4]
  Assay %: 66.84%
  Concentration calculated from LC-MS data: 646 µg/mL
[1]; [5]
  Assay %: 62.32%
  Concentration calculated from LC-MS data: 602 µg/mL
[1]; [6]
  Assay %: 62.00%
  Concentration calculated from LC-MS data: 599 µg/mL
[1]; [7]
  Assay %: 66.87%
  Concentration calculated from LC-MS data: 646 µg/mL
[1]; [8]
  Assay %: 66.25%
  Concentration calculated from LC-MS data: 640 µg/mL
[1]; [9]
  Assay %: 36.75%
  Concentration calculated from LC-MS data: 355 µg/mL
[1]; [10]
  Assay %: 73.49%
  Concentration calculated from LC-MS data: 729 µg/mL
[1]; [11]
  Assay %: 53.43%
  Concentration calculated from LC-MS data: 530 µg/mL
[1]; [12]
  Assay %: 44.15%
  Concentration calculated from LC-MS data: 438 µg/mL
[1]; [13]
  Assay %: 73.49%
  Concentration calculated from LC-MS data: 729 µg/mL
[1]; [14]
  Assay %: 52.42%
  Concentration calculated from LC-MS data: 520 µg/mL
[1]; [15]
  Assay %: 21.98%
  Concentration calculated from LC-MS data: 218 µg/mL
[1]; acetate buffers pH 4 and pH 6
  Assay at time zero: about 70%
  Stability at 5° C. versus 25° C.: better stability at 5 °C compared to the samples at 25 °C
CD4 T-cell
  Increase of CD4 T-cell count relative to baseline: up to 97%
HIV-1; [16]
  HIV-1 RNA count: below 300 copies/mL
  Reduction in viral load from baseline: up to 99%
HIV-1; most patients, first 5 weeks of SC administration, INS alone
  Reduction in viral load from baseline: up to 90%
[2]; lentiviral particles IP + INS peptide 1.25 mg/kg SC on days 1, 4, 8, 11
  Inhibition of growth of lung cancer tumors relative to control: 50%
[2]; lentiviral particles IP + INS peptide 2.5 mg/kg SC on days 1, 4, 8, 11
  Inhibition of growth of lung cancer tumors relative to control: 50%
[2]; day 17, INS 1.25 mg/kg versus 2.5 mg/kg, with lentiviral particles
  Comparison of doses at the end of the experiment: better results than with INS 2.5 mg/kg
